From PubChem BioAssay (NCI)
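Exposure lasted 48 hours, with cells grown in 96-well plates and compounds tested at five concentrations. At the GI50, growth is halved. The concentration for full growth arrest is given as TGI.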

Assays:
Assay in all cases: DTP human tumour cell line panel, 48 h
SF-539 CNS = system: SF-539 CNS
SK-MEL-2 melanoma = system: SK-MEL-2 melanoma
HL-60(TB) leukemia = system: HL-60(TB) leukemia
MDA-MB-435 = system: MDA-MB-435
MCF7 breast = system: MCF7 breast
MALME-3M melanoma = system: MALME-3M melanoma
NCI-H226 lung = system: NCI-H226 lung
SN12C renal = system: SN12C renal
UACC-62 melanoma = system: UACC-62 melanoma
SK-MEL-28 melanoma = system: SK-MEL-28 melanoma

| Compound | TGI (SF-539 CNS) [µM] | TGI (SK-MEL-2 melanoma) [µM] | TGI (HL-60(TB) leukemia) [µM] | TGI (MDA-MB-435) [µM] | TGI (MCF7 breast) [µM] | TGI (MALME-3M melanoma) [µM] | TGI (NCI-H226 lung) [µM] | TGI (SN12C renal) [µM] | TGI (UACC-62 melanoma) [µM] | TGI (SK-MEL-28 melanoma) [µM] | GI50 (SF-539 CNS) [µM] | GI50 (SK-MEL-2 melanoma) [µM] | GI50 (HL-60(TB) leukemia) [µM] | GI50 (MDA-MB-435) [µM] | GI50 (MCF7 breast) [µM] | GI50 (MALME-3M melanoma) [µM] | GI50 (NCI-H226 lung) [µM] | GI50 (SN12C renal) [µM] | GI50 (UACC-62 melanoma) [µM] | GI50 (SK-MEL-28 melanoma) [µM] |
| --- | --- | --- | --- | --- | --- | --- | --- | --- | --- | --- | --- | --- | --- | --- | --- | --- | --- | --- | --- | --- |
| CN(C)CCCNC(=O)c1c(O)c2ccccc2n(C)c1=O | > 100 | > 100 | > 100 | > 100 | > 100 | > 100 | > 100 | > 100 | > 100 | > 100 | – | – | – | – | – | – | – | – | – | – |
| COc1cc(C(O)c2ccc3c(c2)OCO3)cc(OC)c1OC (stereo not drawn) | > 100 | > 100 | > 100 | > 100 | > 100 | > 100 | > 100 | > 100 | > 100 | > 100 | – | – | – | – | – | – | – | – | – | – |
| CC(=O)n1nc(-c2ccccc2)n(/N=C/c2ccc([N+](=O)[O-])o2)c1=O | 18.4 | 11.5 | 9.73 | 12.1 | 13.8 | 16.5 | > 19.8 | 7.39 | 23.8 | 22.3 | – | – | – | – | – | – | – | – | – | – |
| C/C(=C\CO)CC/C=C(\C)CNc1ccc([N+](=O)[O-])cc1 | > 100 | 79.5 | 57.2 | 84.9 | > 100 | 34.6 | > 100 | > 100 | > 100 | > 100 | – | – | – | – | – | – | – | – | – | – |
| CN(C)c1ccc(Cc2cc3c(O)ccc(O)c3cc(Cc3ccc(N(C)C)cc3)c2=O)cc1 | 60.9 | > 68.9 | > 37.6 | 36.9 | 58.6 | 45.4 | 56.2 | > 73.2 | 65.9 | 37.4 | – | – | – | – | – | – | – | – | – | – |
| O=C1CS(=O)(=O)C(c2cccc(Oc3ccccc3)c2)N1c1cc(Cl)ccc1Cl (stereo not drawn) | 44.6 | 30.2 | 81.8 | 25.9 | 35.4 | > 100 | 41.5 | 39 | 31.9 | 70.4 | – | – | – | – | – | – | – | – | – | – |
| COc1ccc(Oc2cnn(C(Br)(Br)C(C)=O)c(=O)c2Br)cc1 | 25.4 | 31.4 | 10.9 | 23.4 | 34.8 | 32.2 | 46.6 | 28.5 | 29.6 | 32.4 | – | – | – | – | – | – | – | – | – | – |
| CCN(CCCl)c1cc(CN(C)C)cc(NC(=O)c2ccc(C(=O)Nc3cccc(CN(C)C)c3)cc2)c1 | 2.99 | 1.61 | 0.444 | 0.665 | 1 | 2.81 | 17.2 | 10.6 | 4.07 | 5.2 | – | – | – | – | – | – | – | – | – | – |
| COc1ccc2c(c1)c(=O)c1c(NCCNCCO)ccc3c(=O)n(CCN(C)C)c(=O)n2c31 | 0.612 | 0.634 | > 100 | 0.305 | 3.54 | 0.449 | 0.912 | 0.64 | 0.293 | 1.34 | – | – | – | – | – | – | – | – | – | – |
| COc1ccc(-n2nc(C)c3c(Nc4ccc(NC(=O)Nc5ccc(Cl)c(C(F)(F)F)c5)cc4)ncnc32)cc1 | 3.2 | 4.43 | 4.95 | 4.17 | 6.03 | 3.35 | 6.08 | 9.37 | 3.74 | 3.98 | 1.24 | 2.23 | 2.1 | 1.92 | 2.12 | 1.54 | 2.21 | 2.63 | 1.78 | 1.8 |
| Nc1ccc(-c2nn3c(COc4ccc(Cl)cc4)nnc3s2)cc1 | > 100 | > 100 | > 100 | > 100 | > 100 | > 100 | > 100 | > 100 | > 100 | > 100 | 34.5 | – | – | – | 41 | – | 7.19 | – | – | – |
| O=C(CC(=O)Nc1ccccc1)NNC(c1cc(N=Nc2ccc(Br)cc2)ccc1O)P(O)O (stereo not drawn) | > 10 | > 10 | 1.12 | > 10 | > 10 | > 10 | 9.43 | > 10 | 9.13 | > 10 | – | – | – | – | – | – | – | – | – | – |
| Clc1nncc2sc(-c3ccccc3)nc12 | 74.6 | 47.4 | 51.2 | 49.6 | > 92.6 | 70.6 | > 82.4 | 57.7 | 46.4 | > 50.8 | – | – | – | – | – | – | – | – | – | – |
| COc1ccc(N2C(=O)C3c4[nH]c5ccccc5c4C4CCCCCCCCCC4C3C2=O)cc1 (stereo not drawn) | > 10 | > 10 | > 10 | > 10 | > 10 | > 10 | > 10 | > 10 | > 10 | > 10 | – | – | – | – | – | – | – | – | – | – |
| COP(=O)(OC)C(Nc1ccc(Cc2ccc(NC(c3ccco3)P(=O)(OC)OC)cc2)cc1)c1ccco1 (stereo not drawn) | 16.2 | 35.7 | > 100 | > 100 | > 100 | > 100 | > 100 | > 100 | 50.5 | > 100 | – | – | – | – | – | – | – | – | – | – |
